In patent US9555038B2, “Heterocycle-substituted tetracyclic compounds and methods of use thereof for the treatment of viral diseases” (Merck Sharp & Dohme Corp., priority 2013, dated 2017):
Like-named read-outs stand apart in the source and are kept apart here.

Legend:
[1] = test system: HCV replicon 1AY93H; assay: Cell-based HCV Replicon Assay A, replicon 1AY93H
Method: (§1) To measure cell-based anti-HCV activity of compounds of the present invention, two complimentary assays were employed using various replicons. In the first assay (“Replicon Assay A”), replicon cells were seeded at 2000 cells/well in 384-well 384-well flat bottom tissue culture treated clear bottom plate (Corning 3707) in the presence of the test compound. Various concentrations of test compound, typically in 10 serial dilutions, were added to the assay mixture, with the starting concentration ranging from 333.3 nM to […]. The final concentration of DMSO was 0.5%. Fetal bovine serum was 5%, in the assay media. Cells were harvested on day 3 by removing media and washing the cells with a suitable wash buffer. The cells are lysed with the addition of 1× Qiagen lysis buffer (Cat #1062731). The replicon RNA level was measured using real time PCR (TaqMan® EZ RT-PCR, Applied Biosystems 403028) with the following primers and probes: […]
(§2) Cyclophilin RNA was used as endogenous control and was amplified in the same reaction as NS5B (multiplex PCR). The real-time RT-PCR reactions were run on ABI PRISM 7900HT Sequence Detection System using the following program: 50° C. for 2 minutes, 60° C. for 30 minutes, 95° C. for 5 minutes, 40 cycles of 94° C. for 20 sec, 55° C. for 1 minutes.
(§3) The amount of HCV replicon RNA per cell is quantified using a linear regression curve for a known nanogram (ng) amount of HCV replicon total RNA. This is established by plotting the Cycle Threshold values (Ct) from the Neo probe and primer set versus the log (ng) for each HCV replicon total RNA standard. The amount of HCV RNA for each replicon sample is calculated by taking the sample's Ct value, minus the line intercept, divided by the slope of the line. Similarly, the amount of Cyclophilin mRNA per cell is also quantified using a linear regression curve for a known nanogram (ng) amount of HCV replicon total RNA. Again, this is established by plotting the Cycle Threshold values (Ct) from the Cyclophilin probe and primer set versus the log (ng) for each HCV replicon total RNA standard.
(§4) Data was obtained for various compounds of the present invention using the methods described in the Example above, and is presented in the table immediately below. Data for replicons 1A, 1AY93H and 2B were obtained using Replicon Assay A and data for replicons 1AQ30D and 1B were obtained using Replicon Assay B.

[2] = test system: HCV replicon 1A; assay: Cell-based HCV Replicon Assay A, replicon 1A
Method: as §1, §2, §3, §4

[3] = test system: HCV replicon 2B; assay: Cell-based HCV Replicon Assay A, replicon 2B
Method: as §1, §2, §3, §4

[4] = read-out: 1A Y93H IC50, replicon 1AY93H
[5] = Hepatitis C virus, read-out: 1A Y93H IC50 (nM), replicon 1AY93H
[6] = Hepatitis C virus, read-out: 2B IC50 (nM), replicon 2B

SMILES	IC50 [1, 4] [nM]	IC50 ([2]; Hepatitis C virus) [pM]	IC50 ([3]; read-out: 2B IC50, replicon 2B) [nM]	IC50 [2] [pM]	IC50 ([1]; replicon 1AY93H, read-out: 1A Y93H IC50) [nM]	IC50 ([3]; replicon 2B, read-out: 2B IC50) [nM]	IC50 [1, 5] [nM]	IC50 [3, 6] [nM]
COC(=O)NC(C(=O)N1[C@@H]2C[C@@H]2C[C@H]1c1ncc(-c2ccc3c(c2)cc2n3C(c3ncc(C4CC4)s3)Oc3cc(-c4cnc([C@@H]5CCCN5C(=O)[C@@H](NC(=O)OC)C(C)C)[nH]4)cc(F)c3-2)[nH]1)C1C[C@@H](C)O[C@@H](C)C1 (single isomer, unassigned) [Compound 64]	0.159	1.2	0.268					
COC(=O)N[C@H](C(=O)N1CCC[C@H]1c1ncc(-c2cc(F)c3c(c2)OC(c2cnc(-c4ccc(F)cc4F)s2)n2c-3cc3cc(-c4cnc([C@@H]5CCCN5C(=O)[C@@H](NC(=O)OC)C(C)C)[nH]4)ccc32)[nH]1)C(C)C (single isomer, unassigned) [Compound 99]	0.26		0.1	1.6				
COC(=O)NC(C(=O)N1CCC[C@H]1c1ncc(-c2ccc3c(c2)cc2n3C(c3cnc(C)s3)Oc3cc(-c4cnc([C@@H]5CCCN5C(=O)[C@@H](NC(=O)OC)C(C)C)[nH]4)cc(F)c3-2)[nH]1)C1C[C@@H](C)O[C@@H](C)C1 (single isomer, unassigned) [Compound 29]	1.09	2	0.192					
COC(=O)NC(C(=O)N1[C@@H]2C[C@@H]2C[C@H]1c1ncc(-c2ccc3c(c2)cc2n3C(c3cnc(CC(C)C)s3)Oc3cc(-c4cnc([C@@H]5CCCN5C(=O)[C@@H](NC(=O)OC)C(C)C)[nH]4)cc(F)c3-2)[nH]1)C1CCOC(C)(C)C1 (single isomer, unassigned) [Compound 436]				1.1	0.126	0.318		
CCc1ncc(C2Oc3cc(-c4cnc([C@@H]5CCCN5C(=O)[C@@H](NC(=O)OC)C(C)C)[nH]4)cc(F)c3-c3cc4cc(-c5cnc([C@@H]6CCCN6C(=O)[C@@H](NC(=O)OC)C(C)C)[nH]5)ccc4n32)s1 (single isomer, unassigned) [Compound 82]	1.58		1.1	2.3				
COC(=O)N[C@H](C(=O)N1CCC[C@H]1c1ncc(-c2cc(F)c3c(c2)OC(c2cn4ccnc4s2)n2c-3cc3cc(-c4cnc([C@@H]5CCCN5C(=O)[C@@H](NC(=O)OC)C(C)C)[nH]4)ccc32)[nH]1)C(C)C (mixture of isomers) [Compound 417]		3.1					0.996	0.453
COC(=O)NC(C(=O)N1CCC[C@H]1c1ncc(-c2ccc3c(c2)cc2n3C(c3cnc(C4CC4)s3)Oc3cc(-c4cnc([C@@H]5CCCN5C(=O)[C@@H](NC(=O)OC)C(C)C)[nH]4)cc(C)c3-2)[nH]1)C1C[C@@H](C)O[C@@H](C)C1 (single isomer, unassigned) [Compound 215]		2.4					0.828	0.09
COC(=O)N[C@H](C(=O)N1CCC[C@H]1c1ncc(-c2cc(F)c3c(c2)OC(c2nc(C(F)(F)F)cs2)n2c-3cc3cc(-c4cnc([C@@H]5CCCN5C(=O)[C@@H](NC(=O)OC)C(C)C)[nH]4)ccc32)[nH]1)C(C)C (single isomer, unassigned) [Compound 419]	17.9			4.1				6.47
COC(=O)NC(C(=O)N1[C@@H]2C[C@@H]2C[C@H]1c1ncc(-c2ccc3c(c2)cc2n3C(c3cnc(C4CCCC4)s3)Oc3cc(-c4cnc([C@@H]5CCCN5C(=O)[C@@H](NC(=O)OC)C(C)C)[nH]4)cc(F)c3-2)[nH]1)C(C)(C)F (single isomer, unassigned) [Compound 328]	0.0463		0.163	1.5				
COC(=O)N[C@H](C(=O)N1CCC[C@H]1c1ncc(-c2cc(F)c3c(c2)OC(c2cnc(-c4ccc(F)cc4F)s2)n2c-3cc3cc(-c4cnc([C@@H]5CCCN5C(=O)[C@@H](NC(=O)OC)C(C)C)[nH]4)ccc32)[nH]1)C(C)C (stereo partly drawn) [Compound 55]		1.2					0.0021	0.003
CCc1ncc(C2Oc3cc(-c4cnc([C@@H]5CCCN5C(=O)[C@@H](NC(=O)OC)C(C)C)[nH]4)cc(F)c3-c3cc4cc(-c5cnc([C@@H]6CCCN6C(=O)C(NC(=O)OC)C6CCOC(C)(C)C6)[nH]5)ccc4n32)s1 (single isomer, unassigned) [Compound 39]	0.0112		0.004	3.7				
CCc1ncc(C2Oc3cc(-c4cnc([C@@H]5CCCN5C(=O)[C@@H](NC(=O)OC)C(C)C)[nH]4)cc(F)c3-c3cc4cc(-c5cnc([C@@H]6C[C@H]7C[C@H]7N6C(=O)[C@@H](CC(=O)OC)C(C)C)[nH]5)ccc4n32)s1 (single isomer, unassigned) [Compound 84]	0.0708		0.425	3.7				
COC(=O)NC(C(=O)N1[C@@H]2C[C@@H]2C[C@H]1c1ncc(-c2ccc3c(c2)cc2n3C(c3cnc(C4CCCC4)s3)Oc3cc(-c4cnc([C@@H]5CCCN5C(=O)[C@@H](NC(=O)OC)C(C)C)[nH]4)cc(F)c3-2)[nH]1)C(C)(C)F (single isomer, unassigned) [Compound 327]	0.002	1.2	0.011					
COC(=O)N[C@H](C(=O)N1CCC[C@H]1c1ncc(-c2cc(F)c3c(c2)OC(c2cnc(OC)s2)n2c-3cc3cc(-c4cnc([C@@H]5CCCN5C(=O)[C@@H](NC(=O)OC)C(C)C)[nH]4)ccc32)[nH]1)C(C)C (single isomer, unassigned) [Compound 13]	0.621	1.1	0.446					
COC(=O)NC(C(=O)N1CCC[C@H]1c1ncc(-c2ccc3c(c2)cc2n3C(c3cnc(C(C)C)s3)Oc3cc(-c4cnc([C@@H]5CCCN5C(=O)[C@@H](NC(=O)OC)C(C)C)[nH]4)cc(F)c3-2)[nH]1)C1CCOC(C)(C)C1 (single isomer, unassigned) [Compound 63]	0.254		1.67	48.3				
COC(=O)NC(C(=O)N1[C@@H]2C[C@@H]2C[C@H]1c1ncc(-c2ccc3c(c2)cc2n3C(c3cnc(C4CCC4)s3)Oc3cc(-c4cnc([C@@H]5CCCN5C(=O)[C@@H](NC(=O)OC)C(C)C)[nH]4)cc(C)c3-2)[nH]1)C(C)(C)F (single isomer, unassigned) [Compound 224]		2.7					0.462	0.204
CCCc1ncc(C2Oc3cc(-c4cnc([C@@H]5CCCN5C(=O)[C@@H](NC(=O)OC)C(C)C)[nH]4)cc(C)c3-c3cc4cc(-c5cnc([C@@H]6CCCN6C(=O)C(NC(=O)OC)C(C)(C)F)[nH]5)ccc4n32)s1 (single isomer, unassigned) [Compound 486]		4.1					0.342	0.031
COC(=O)N[C@H](C(=O)N1CCC[C@H]1c1ncc(-c2cc(C)c3c(c2)OC(c2cnc(C4CC4)s2)n2c-3cc3cc(-c4cnc([C@@H]5C[C@H]6C[C@H]6N5C(=O)[C@@H](NC(=O)OC)C(C)(C)F)[nH]4)ccc32)[nH]1)C(C)C (single isomer, unassigned) [Compound 209]	0.197		0.155	3				
COC(=O)NC(C(=O)N1[C@@H]2C[C@@H]2C[C@H]1c1ncc(-c2ccc3c(c2)cc2n3C(c3cnc(C(C)C)s3)Oc3cc(-c4cnc([C@@H]5CCCN5C(=O)[C@@H](NC(=O)OC)C(C)C)[nH]4)cc(F)c3-2)[nH]1)C1CCOC(C)(C)C1 (single isomer, unassigned) [Compound 68]	0.0996			1.4				0.253
COC(=O)N[C@H](C(=O)N1CCC[C@H]1c1ncc(-c2cc(F)c3c(c2)OC(c2nc4ccccc4s2)n2c-3cc3cc(-c4cnc([C@@H]5CCCN5C(=O)[C@@H](NC(=O)OC)C(C)C)[nH]4)ccc32)[nH]1)C(C)C (single isomer, unassigned) [Compound 401]		8.5	0.634				0.346	
COC(=O)N[C@H](C(=O)N1CCC[C@H]1c1ncc(-c2cc(F)c3c(c2)OC(c2cnc(-c4ccc(Cl)cc4)s2)n2c-3cc3cc(-c4cnc([C@@H]5CCCN5C(=O)[C@@H](NC(=O)OC)C(C)C)[nH]4)ccc32)[nH]1)C(C)C (single isomer, unassigned) [Compound 54]	0.429		0.248	1.3				
COC(=O)N[C@H](C(=O)C1CCC[C@H]1c1ncc(-c2ccc3c(c2)cc2n3C(c3cnc(CC(C)C)s3)Oc3cc(-c4cnc([C@@H]5CCCN5C(=O)[C@@H](NC(=O)OC)C(C)C)[nH]4)cc(F)c3-2)[nH]1)C(C)C (mixture of isomers) [Compound 403]		6.4					0.016	0.142
